Molecules are shown by their SMILES.

Test [1] relates to mice (小鼠). The test can be described thus: Open field test (旷场实验), hyperlocomotion. Particulars: medium and large dose (50, 100 mg/kg), i.p., single administration (day 1); P<0.01. The format is in vivo, Kunming mouse.
Test [2] has as its system mice (小鼠). The test can be described thus: Stereotyped behaviour (刻板行为). In kind it is in vivo, Kunming mouse. Particulars: medium and large dose (50, 100 mg/kg), i.p., P<0.01.
The test system of test [3] is mice (小鼠). The test can be described thus: Suspension test (悬吊实验), limb weakness. In kind it is in vivo, Kunming mouse. Particulars: i.p., single administration (day 1).
The subject of test [4] is mice (小鼠). As to the kind of experiment: Pole climbing test (爬杆实验), ataxia. The format is in vivo, Kunming mouse. Particulars: medium and large dose (50, 100 mg/kg), i.p., once daily for 7 days; P<0.01.
The subject of test [5] is mice (小鼠). As to the kind of experiment: Y-maze test (Y型迷宫实验), learning and memory. In kind it is in vivo, Kunming mouse. Particulars: medium and large dose (50, 100 mg/kg), i.p., once daily for 7 days; P<0.01.
The test system of test [6] is mice (小鼠). As to the kind of experiment: Schizophrenia-like symptoms overall (behavioural tests together). Particulars: i.p. The format is in vivo, Kunming mouse.
Test [7] relates to SOD. The test can be described thus: Serum SOD determination. Particulars: 25, 50, 100 mg/kg, i.p., once daily for 7 days; with increasing dose. In kind it is in vivo, Kunming mouse.
Test [8] deals with SOD. As to the kind of experiment: Brain tissue SOD determination. In kind it is in vivo, Kunming mouse. Particulars: 25, 50, 100 mg/kg, i.p., once daily for 7 days; with increasing dose.
A further test concerns NOX4 protein (NOX4蛋白). The test can be described thus: NOX4 protein expression (immunohistochemistry). In kind it is in vivo, Kunming mouse. Particulars: i.p.
The subject of test [9] is depressed patients (抑郁患者). Particulars: 0.5 mg/kg; Liebrenz et al.; cited from earlier work.
The next test has as its system rats (大鼠). Particulars: repeated injection; Trujillo et al.; cited from earlier work.
Setting [10] is: 25, 50, 100 mg/kg, single or repeated administration.

As to `CNC1(c2ccccc2Cl)CCCCC1=O` (stereo not drawn) [氯胺酮], the hyperlocomotion result in the test on mice (小鼠) [1] is reported as “明显的运动亢进”. For the same compound, the stereotyped behaviour entry in the test on mice (小鼠) [2] (once daily for 7 days) is “刻板行为增加”; in the test on mice (小鼠) [2] (single administration (day 1)) it was “刻板行为”. Moreover, the limb weakness result in the test with mice (小鼠) [3] (medium and large dose (50, 100 mg/kg), P<0.01) is listed as “四肢无力”; in the test with mice (小鼠) [3] (small dose 25 mg/kg, P<0.05), “产生四肢无力”. Moreover, the ataxia entry in the test with mice (小鼠) [4] is given as “共济失调现象”. Further, the “learning and memory ability” value with mice (小鼠) [5] is “学习记忆能力下降”. For the same compound, the schizophrenia-like symptoms result with mice (小鼠) [6] (setting [10]) is listed as “均可诱导小鼠产生类似精神分裂症的症状”; in the test on mice (小鼠) [6] (large dose 100 mg/kg) it was “更为明显”. Moreover, the “schizophrenia-like symptoms, dose dependence” value in the test on mice (小鼠) [6] (setting [10]) is listed as “具有一定的剂量依赖趋势”. Moreover, the “stability of part of the symptoms” value with mice (小鼠) [6] (after 7 days of repeated administration) is “部分症状具有更好的稳定性”. The “serum SOD activity, dose trend” value in the test with SOD [7] is “逐渐降低”. The “brain tissue SOD activity, dose trend” value in the test on SOD [8] is listed as “逐渐降低”. For the same compound, in the test on NOX4 protein (NOX4蛋白) (25, 50, 100 mg/kg), the “NOX4 protein expression, dose dependence” value is “有一定的剂量依赖趋势”. In the test on NOX4 protein (NOX4蛋白) (25, 50, 100 mg/kg, P<0.01), the “NOX4 protein expression, pairwise comparison among dose groups” value is “具有显著性差异”. Besides, in the test with NOX4 protein (NOX4蛋白) (different doses of ketamine (25, 50, 100 mg/kg), P<0.01), the NOX4 protein expression result was “显著增加”. In addition, in test [9], the “symptoms of depressed patients” value is listed as “显著改善”. In addition, the activity of rats entry in the test with rats (大鼠) is given as “活动增多”.

(Values after CN107801692A, “一种氯胺酮诱导精神分裂症动物模型及其机制研究” (Kunming Medical University, priority 2017, dated 2018).)
